Among the data in patent publication US20060223996A1, “IL-12 modulatory compounds” (Synta Pharmaceuticals Corp., priority 2004, published 2006) are IC50 values, retold here.

Each structure is given as a SMILES string.

Usually IC50 stands for the concentration that gives 50% inhibition.

The assay relates to IL-12. Nature of the assay: Human in vitro assay: inhibition of IL-12 production in IFNγ/LPS- or IFNγ/SAC-stimulated human PBMC or THP-1 cells (ELISA). Conditions: read-out: IC50 Range (representative in vitro IC50 data). It counts as cell-based. An excerpt: The biological activities of a heterocyclic compound can be evaluated by a number of cell-based assays. One of such assays can be conducted using cells from human peripheral blood mononuclear cells (PBMC) or human monocytic cell line (THP-1). The cells are stimulated with a combination of human interferon-γ (IFNγ) and lipopolysaccharide or a combination of IFNγ and Staphylococcus aureus Cowan I in the presence of a test compound. The level of inhibition of IL-12 production can be measured by determining the amount of p70 by using a sandwich ELISA assay with anti-human IL-12 antibodies. IC50 of the test compound can then be determined. Specifically, PBMC or THP-1 cells are incubated with the test compound. Cell viability was assessed using the bioreduction of MTS [3-(4,5-dimethylthiazol-2-yl)-5-(3-carboxymethoxyphenyl)-2-(4-sulfophenyl)-2H-tetrazolium](Promega, Madison, Wis.).
Human In Vitro Assay. Human PBMC were isolated by centrifugation using Ficoll-Paque (Pharmacia Biotech, Uppsala, Sweden) and prepared in RPMI medium supplemented with 10% fetal calf serum (FCS), 100 U/mL penicillin, and 100 μg/mL streptomycin. PBMC were plated in wells of a 96-well plate at a concentration of 5×10^5 cells/well, and primed by adding IFNγ (30 U/mL) for 22 h and stimulated by adding LPS (1 μg/mL), or by adding IFNγ (100 U/mL) and then stimulated by adding SAC (0.01%). A test pyrimidine compound was dissolved in DMSO, and added to wells of the 96-well plate. The final DMSO concentration was adjusted to 0.25% in all cultures, including the compound-free control. Human THP-1 cells were plated in wells, primed by adding IFNγ (100 U/mL) for 22 h and stimulated by adding SAC (0.025%) in the presence of different concentrations of the pyrimidine compound. Cell-free supernatants were taken 18 h later for measurement of cytokines. Cell viability was assessed using the bioreduction of MTS. Cell survival was estimated by determining the ratio of the absorbance in compound-treated groups versus compound-free control.
The supernatant was assayed for the amount of IL-12p40, IL-12p70, or IL-10 by using a sandwich ELISA with anti-human antibodies, i.e., a Human IL-12 p40 ELISA kit from R&D Systems (Berkeley, Calif.), and a Human IL-12 p70 or IL-10 ELISA kit from Endogen (Cambridge, Mass.). Assays were based on the manufacturer's instructions.
The biological activities of pyrimidine compounds were tested on human PBMC or THP-1 cells.
For orientation: An ELISA detects its analyte on a solid surface through an enzyme-linked reagent.

On to `CNc1ccc(NC(=O)c2cc(OCCN3CCOCC3)nc(N3CCOCC3)n2)cc1C` [Compound 289, 2-Morpholin-4-yl-6-(2-morpholin-4-yl-ethoxy)-pyrimidine-4-carboxylic acid (3-methyl-4-methylamino-phenyl)-amide], for which the IC50 was no less than 1000 nM.

Turning to `COCCN(C)c1cc(C(=O)Nc2cccc(-n3cccn3)c2)nc(N2CCOCC2)n1` [Compound 311, 6-[(2-Methoxy-ethyl)-methyl-amino]-2-morpholin-4-yl-pyrimidine-4-carboxylic acid (3-pyrazol-1-yl-phenyl)-amide], the IC50 was less than 1000 nM.

Take `O=C(Nc1cccc(Br)c1)c1cc(OCCN2CCOCC2)nc(N2CCOCC2)n1` [Compound 47, 2-Morpholin-4-yl-6-(2-morpholin-4-yl-ethoxy)-pyrimidine-4-carboxylic acid (3-bromo-phenyl)-amide]: the IC50 was no less than 1000 nM.

As to `O=C(Nc1ccc2ncccc2c1)c1cc(OCCc2ccccn2)nc(N2CCOCC2)n1` [Compound 38, 2-Morpholin-4-yl-6-(2-pyridin-2-yl-ethoxy)-pyrimidine-4-carboxylic acid quinolin-6-ylamide], the 50% inhibitory concentration (IC50) was no less than 1000 nM.

`CN1C(=O)c2ccc(NC(=O)c3cc(OCCN4CCOCC4)nc(N4CCOCC4)n3)cc2C1=O` [Compound 274, 2-Morpholin-4-yl-6-(2-morpholin-4-yl-ethoxy)-pyrimidine-4-carboxylic acid (2-methyl-1,3-dioxo-2,3-dihydro-1H-isoindol-5-yl)-amide]: the concentration for half-maximal inhibition (IC50) is no less than 1000 nM.

Take `COC(=O)CNc1cc(C(=O)Nc2ccc3[nH]c(C)c(C)c3c2)nc(N2CCOCC2)n1` [Compound 97, [6-(2,3-Dimethyl-1H-indol-5-ylcarbamoyl)-2-morpholin-4-yl-pyrimidin-4-ylamino]-acetic acid methyl ester]: the 50% inhibitory concentration (IC50) is less than 1000 nM.

As to `Cc1c(C)n(C)c2ccc(N(C)C(=O)c3cc(OCCN4CCOCC4)nc(N4CCOCC4)n3)cc12` [Compound 31, 2-Morpholin-4-yl-6-(2-morpholin-4-yl-ethoxy)-pyrimidine-4-carboxylic acid methyl-(1,2,3-trimethyl-1H-indol-5-yl)-amide], the 50% inhibitory concentration (IC50) was no less than 1000 nM.

`Cc1cccc(NC(=O)Nc2cc(OCCN3CCOCC3)nc(N3CCOCC3)n2)c1` [Compound 9, 1-[2-Morpholin-4-yl-6-(2-morpholin-4-yl-ethoxy)-pyrimidin-4-yl]-3-m-tolyl-urea]: the IC50 was less than 1000 nM.

Turning to `O=C(Nc1ccc2[nH]c3c(c2c1)CCCC3)c1cc(OCCc2cccc[n+]2[O-])nc(N2CCOCC2)n1` [Compound 322, 2-Morpholin-4-yl-6-[2-(1-oxy-pyridin-2-yl)-ethoxy]-pyrimidine-4-carboxylic acid (6,7,8,9-tetrahydro-5H-carbazol-3-yl)-amide], the concentration for half-maximal inhibition (IC50) is less than 1000 nM.

For the molecule `O=C(Nc1ccc2ccccc2c1)c1cc(OCCc2ccccn2)nc(N2CCOCC2)n1` [Compound 37, 2-Morpholin-4-yl-6-(2-pyridin-2-yl-ethoxy)-pyrimidine-4-carboxylic acid naphthalen-2-ylamide], the IC50 is no less than 1000 nM.

`Cc1ccc([N+](=O)[O-])c(NC(=O)c2cc(OCCN3CCOCC3)nc(N3CCOCC3)n2)c1` [Compound 271, 2-Morpholin-4-yl-6-(2-morpholin-4-yl-ethoxy)-pyrimidine-4-carboxylic acid (5-methyl-2-nitro-phenyl)-amide]: the concentration for half-maximal inhibition (IC50) is less than 1000 nM.

As for `COCCN(C)c1cc(C(=O)Nc2cc(C(C)(C)C)on2)nc(N2CCOCC2)n1` [Compound 228, 6-[(2-Methoxy-ethyl)-methyl-amino]-2-morpholin-4-yl-pyrimidine-4-carboxylic acid (5-tert-butyl-isoxazol-3-yl)-amide], the 50% inhibitory concentration (IC50) is no less than 1000 nM.

With `CO/N=C(\C)c1cccc(NC(=O)c2cc(OCCN3CCOCC3)nc(N3CCOCC3)n2)c1` [Compound 154, (E)-N-(3-(1-(methoxyimino)ethyl)phenyl)-2-morpholino-6-(2-morpholinoethoxy)pyrimidine-4-carboxamide], the 50% inhibitory concentration (IC50) was less than 1000 nM.

Consider `NC(=O)c1cccc(NC(=O)c2cc(OCCN3CCOCC3)nc(N3CCOCC3)n2)c1` [Compound 25, 2-Morpholin-4-yl-6-(2-morpholin-4-yl-ethoxy)-pyrimidine-4-carboxylic acid (3-carbamoyl-phenyl)-amide], for which the concentration for half-maximal inhibition (IC50) was less than 1000 nM.

Regarding `CN(C)C(=O)c1cccc(NC(=O)c2cc(OCCN3CCOCC3)nc(N3CCOCC3)n2)c1` [Compound 53, 2-Morpholin-4-yl-6-(2-morpholin-4-yl-ethoxy)-pyrimidine-4-carboxylic acid (3-dimethylcarbamoyl-phenyl)-amide], the concentration for half-maximal inhibition (IC50) was no less than 1000 nM.

As to `COCCN(C)c1cc(C(=O)Nc2ccc3[nH]c(C)c(C)c3c2)nc(N2CCOCC2)c1` [Compound 158, 4-[(2-Methoxy-ethyl)-methyl-amino]-6-morpholin-4-yl-pyridine-2-carboxylic acid (2,3-dimethyl-1H-indol-5-yl)-amide], the half-inhibitory concentration (IC50) was less than 1000 nM.

Take `O=C(Nc1cccc(-n2ccnc2)c1)c1cc(OCCN2CCOCC2)nc(N2CCOCC2)n1` [Compound 305, 2-Morpholin-4-yl-6-(2-morpholin-4-yl-ethoxy)-pyrimidine-4-carboxylic acid (3-imidazol-1-yl-phenyl)-amide]: the half-inhibitory concentration (IC50) was no less than 1000 nM.

In the case of `COCCN(C)c1cc(C(=O)Nc2ccc3c(c2)CCN3C(C)=O)nc(N2CCOCC2)n1` [Compound 206, N-(1-acetylindolin-5-yl)-6-((2-methoxyethyl)(methyl)amino)-2-morpholinopyrimidine-4-carboxamide], the 50% inhibitory concentration (IC50) was no less than 1000 nM.

Take `CN1CCCc2cc(NC(=O)c3cc(OCCN4CCOCC4)nc(N4CCOCC4)n3)ccc21` [Compound 318, 2-Morpholin-4-yl-6-(2-morpholin-4-yl-ethoxy)-pyrimidine-4-carboxylic acid (1-methyl-1,2,3,4-tetrahydro-quinolin-6-yl)-amide]: the IC50 is no less than 1000 nM.

As for `CC(C)c1cccc(NC(=O)Nc2cc(OCCN3CCOCC3)nc(N3CCOCC3)n2)c1` [Compound 330, 1-(3-Isopropyl-phenyl)-3-[2-morpholin-4-yl-6-(2-morpholin-4-yl-ethoxy)-pyrimidin-4-yl]-urea], the half-inhibitory concentration (IC50) was less than 1000 nM.

For the molecule `Cc1nccc(-c2cccc(NC(=O)c3cc(OCCN4CCOCC4)nc(N4CCOCC4)n3)c2)n1` [Compound 170, 2-Morpholin-4-yl-6-(2-morpholin-4-yl-ethoxy)-pyrimidine-4-carboxylic acid [3-(2-methyl-pyrimidin-4-yl)-phenyl]-amide], the IC50 is no less than 1000 nM.

Consider `O=C(Nc1cccc(-n2cccc2)c1)c1cc(OCCN2CCOCC2)nc(N2CCOCC2)n1` [Compound 285, 2-Morpholin-4-yl-6-(2-morpholin-4-yl-ethoxy)-pyrimidine-4-carboxylic acid (3-pyrrol-1-yl-phenyl)-amide], for which the IC50 is less than 1000 nM.

On to `O=C(Nc1cccc2ncccc12)c1cc(OCCc2ccccn2)nc(N2CCOCC2)n1` [Compound 39, 2-Morpholin-4-yl-6-(2-pyridin-2-yl-ethoxy)-pyrimidine-4-carboxylic acid quinolin-5-ylamide], for which the IC50 was no less than 1000 nM.

Consider `CN(CCO)c1cc(C(=O)Nc2cccc(-n3cccc3)c2)nc(N2CCOCC2)n1` [Compound 304, 6-[(2-Hydroxy-ethyl)-methyl-amino]-2-morpholin-4-yl-pyrimidine-4-carboxylic acid (3-pyrrol-1-yl-phenyl)-amide], for which the IC50 is less than 1000 nM.

Regarding `COCCN(C)c1cc(C(=O)Nc2cccc(N(C)C(C)=O)c2)nc(N2CCOCC2)n1` [Compound 166, 6-[(2-Methoxy-ethyl)-methyl-amino]-2-morpholin-4-yl-pyrimidine-4-carboxylic acid [3-(acetyl-methyl-amino)-phenyl]-amide], the concentration for half-maximal inhibition (IC50) was no less than 1000 nM.

For the molecule `O=C(Nc1cccc(Cl)c1)Nc1cc(OCCN2CCOCC2)nc(N2CCOCC2)n1` [Compound 126, 1-(3-Chloro-phenyl)-3-[2-morpholin-4-yl-6-(2-morpholin-4-yl-ethoxy)-pyrimidin-4-yl]-urea], the 50% inhibitory concentration (IC50) was less than 1000 nM.

For `Cc1[nH]c2ccc(NC(=O)c3cc(NCC(=O)N4CCN(C)CC4)nc(N4CCOCC4)n3)cc2c1C` [Compound 106, 6-[2-(4-Methyl-piperazin-1-yl)-2-oxo-ethylamino]-2-morpholin-4-yl-pyrimidine-4-carboxylic acid (2,3-dimethyl-1H-indol-5-yl)-amide], the IC50 was less than 1000 nM.

Turning to `CCOC(=O)C1CCN(c2cc(C(=O)Nc3ccc4[nH]c(C)c(C)c4c3)nc(N3CCOCC3)c2)CC1` [Compound 176, 2′-(2,3-Dimethyl-1H-indol-5-ylcarbamoyl)-6′-morpholin-4-yl-3,4,5,6-tetrahydro-2H-[1,4′]bipyridinyl-4-carboxylic acid ethyl ester], the concentration for half-maximal inhibition (IC50) was less than 1000 nM.
